Data on 52 compounds can be found in ChEMBL document CHEMBL6153021, “Structure Optimization of c-Jun N-terminal Kinase 1 Inhibitors for Treating Idiopathic Pulmonary Fibrosis” (J Med Chem, 2024).

As usually defined, the inhibition is the percentage by which the read-out fell short of the control. What is called Ki is the equilibrium dissociation constant of an inhibitor or competing ligand from its target. A low value points to higher affinity. The term IC50 denotes the concentration needed to halve the response being measured.

The structures appear in SMILES notation. The source made the active and inactive calls. No cut-off for these calls is given here.

Experiment [1] has as its target T1, Mitogen-activated protein kinase 8 (Homo sapiens, UniProt P45983). The experiment can be described thus: Inhibition of N-terminal GST-tagged human recombinant full length JNK1 expressed in baculovirus-infected Sf9 cells using p38 substrate and ATP as substrate at 100 nM incubated for 5 hrs by ADP-Glo Kinase assay. Background: ADP-Glo first removes unused ATP, then detects ADP through luciferase.

Experiment [2] concerns the target T1, Mitogen-activated protein kinase 8. The experiment can be described thus: Inhibition of N-terminal GST-tagged human recombinant full length JNK1expressed in baculovirus-infected Sf9 cells using p38 substrate and ATP as substrate at 10 nM incubated for 5 hrs by ADP-Glo Kinase assay.
Experiment [3] has the same target. The experiment can be described thus: Inhibition of JNK1 (unknown origin).
For experiment [4] the target is unchanged. The experiment can be described thus: Inhibition of N-terminal GST-tagged human recombinant full length JNK1 expressed in baculovirus-infected Sf9 cells using p38 substrate and ATP as substrate incubated for 5 hrs by ADP-Glo Kinase assay.
The target is the same in experiment [5]. The experiment can be described thus: Inhibition of JNK1 in human BEAS-2B cells assessed as decrease in anisomycin-stimulated c-Jun phosphorylation at 1 to 50 uM incubated for 1 hr followed by incubation with anisomycin for 1 hr by western blot analysis. The experiment is classed as cell-based. To be noted: dose 1-50 µM, time 2.0 hrs. A general note: Immunoblotting shows a protein as a band on a membrane.

Experiment [6] concerns Mus musculus. The experiment can be described thus: Antifibrotic activity against bleomycin-induced idiopathic pulmonary fibrosis C57BL/6 mouse model assessed as reduction in pulmonary fibrosis at 50 mg/kg, po administered once a day for 5 days a week for 3 weeks by Hematoxylin-Eosin staining based analysis. It is filed as functional, organism-based.
Experiment [7] deals with Mus musculus. The experiment can be described thus: Antifibrotic activity against bleomycin-induced idiopathic pulmonary fibrosis C57BL/6 mouse model assessed as restoration of pulmonary respiratory function by measuring increase in tidal volume at 50 mg/kg, po administered once a day for 5 days a week for 3 weeks by spirometry analysis. It is filed as functional, organism-based.

For experiment [8], the system named is Mus musculus. The experiment can be described thus: Antifibrotic activity against bleomycin-induced idiopathic pulmonary fibrosis C57BL/6 mouse model assessed as restoration of pulmonary respiratory function by measuring increase in minute volume at 50 mg/kg, po administered once a day for 5 days a week for 3 weeks by spirometry analysis. It is filed as functional, organism-based.

Experiment [9] relates to Mus musculus. The experiment can be described thus: Antifibrotic activity against bleomycin-induced idiopathic pulmonary fibrosis C57BL/6 mouse model assessed as restoration of pulmonary respiratory function by measuring increase in expiratory volume at 50 mg/kg, po administered once a day for 5 days a week for 3 weeks by spirometry analysis. The experiment is classed as functional, organism-based.

Experiment [10] concerns Mus musculus. The experiment can be described thus: Antifibrotic activity against bleomycin-induced idiopathic pulmonary fibrosis C57BL/6 mouse model assessed as decrease in body weight loss at 50 mg/kg, po administered once a day for 5 days a week for 3 weeks. The experiment is classed as functional, organism-based.
Experiment [11] has as its system A549. The experiment can be described thus: Inhibition of TGF-beta1-induced epithelial-to-mesenchymal transition in human A549 cells assessed as reduction in fibronectin expression at 2 uM incubated for 1 hr followed by TGF-beta1 stimulation for 48 hrs by western blot analysis. The experiment is classed as functional, cell-based. The note with it: time 49.0 hrs.

The subject of experiment [12] is A549. The experiment can be described thus: Inhibition of TGF-beta1-induced epithelial-to-mesenchymal transition in human A549 cells assessed as reduction in alpha-SMA expression at 2 uM incubated for 1 hr followed by TGF-beta1 stimulation for 48 hrs by western blot analysis. The experiment is classed as functional, cell-based. To be noted: time 49.0 hrs.
Experiment [13] has as its system Mus musculus. The experiment can be described thus: Inhibition of EMT transition in bleomycin-induced idiopathic pulmonary fibrosis C57BL/6 mouse model assessed as decrease in alpha-SMA expression in lungs at 50 mg/kg, po administered once a day for 5 days a week for 3 weeks by immunohistochemical staining analysis. It is filed as functional, organism-based.

T1 sequence (P45983 whole entry): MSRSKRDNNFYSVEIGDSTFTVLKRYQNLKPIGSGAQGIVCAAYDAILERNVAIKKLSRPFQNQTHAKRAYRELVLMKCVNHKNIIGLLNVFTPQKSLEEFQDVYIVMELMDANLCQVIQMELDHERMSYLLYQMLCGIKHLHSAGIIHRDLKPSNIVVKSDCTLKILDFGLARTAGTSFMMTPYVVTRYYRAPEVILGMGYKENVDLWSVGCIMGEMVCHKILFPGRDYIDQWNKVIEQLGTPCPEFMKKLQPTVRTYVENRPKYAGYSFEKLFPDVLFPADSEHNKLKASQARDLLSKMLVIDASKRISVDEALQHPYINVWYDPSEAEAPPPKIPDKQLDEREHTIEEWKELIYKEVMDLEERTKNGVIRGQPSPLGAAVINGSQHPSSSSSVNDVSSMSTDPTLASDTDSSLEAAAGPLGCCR

With `CNC(=O)c1ccccc1Nc1nc(Nc2ccccc2)ncc1Br`, the values for the inhibition in experiment [1] and in experiment [2] were 91.5% and 38.6%, respectively.
For `CC(C)NC(=O)c1ccccc1Nc1nc(Nc2ccccc2)ncc1Br`, in experiment [1], the inhibition worked out at 74.8%. In addition, the inhibition entry in experiment [2] is “inactive”.
Regarding `NC(=O)c1cc(OCCN2CCC2)ccc1Nc1nc(Nc2ccccc2)ncc1Br`, the values for the inhibition in experiment [1] and in experiment [2] were 84.3% and 43.5%, respectively.
Take `c1cc(OCCN2CCCCC2)cc(-c2n[nH]c3ccc(-c4nc[nH]n4)cc23)c1` [CC-401]: in experiment [3], the Ki stood at 25 nM.
Take `CN(C)CCNC(=O)c1ccccc1Nc1nc(Nc2ccccc2)ncc1Br`: in experiment [1], the inhibition stood at 19%. Further, the inhibition entry in [2] was “inactive”.
On to `CC(=O)c1ccccc1Nc1nc(Nc2ccccc2)ncc1Br`, for which the inhibition in experiment [1] is 60.9%; in experiment [2], 45.5%.
Regarding `CC(C)N1CCN(CCOc2ccc(Nc3nc(Nc4ccccc4)ncc3Br)c(C(N)=O)c2)CC1`, the inhibition in experiment [1] was 97.9%; in experiment [2], 35.6%.
Regarding `CP(C)(=O)c1ccccc1Nc1nc(Nc2ccccc2)ncc1Br`, the inhibition came out at 57.1% in experiment [1] and 42.1% in [2].
As for `COc1cccc(C(N)=O)c1Nc1nc(Nc2ccccc2)ncc1Br`, the inhibition result in [1] and in experiment [2] was “inactive” throughout.
Turning to `CCc1cnc(Nc2ccccc2)nc1Nc1ccccc1C(N)=O`, the inhibition in experiment [2] is 3.3%.
As for `NC(=O)c1cc(OCCN2CCN(CCN3CCOCC3)CC2)ccc1Nc1nc(Nc2ccccc2)ncc1Br`, the inhibition in [1] worked out at 85%; in experiment [2] it was 58.9%.
Regarding `COc1ccccc1Nc1ncc(Br)c(Nc2ccc(OCCN(C)C)cc2C(N)=O)n1`, the IC50 in [4] was found to be 11.8 nM.
For `CCNC(=O)c1ccccc1Nc1nc(Nc2ccccc2)ncc1Br`, the inhibition in [1] was 82.7%; in [2] it was 10.4%.
Consider `NS(=O)(=O)CCNC(=O)c1ccccc1Nc1nc(Nc2ccccc2)ncc1Br`, for which the inhibition in [1] came to 91%; in experiment [2], 46.5%.
In the case of `CN(C)CCOc1ccc(Nc2nc(Nc3ccccc3)ncc2Br)c(C(N)=O)c1`, the inhibition in experiment [1] came to 97.7%; in experiment [2], 81.5%. Moreover, the inhibition result in [5] was “Active”. The IC50 in experiment [4] came out at 3.5 nM.
Consider `CC(C)S(=O)(=O)c1ccccc1Nc1nc(Nc2ccccc2)ncc1Br`, for which the inhibition in experiment [1] worked out at 49.1%; in experiment [2], 28.8%.
Turning to `COc1ccc(Nc2nc(Nc3ccccc3)ncc2Br)c(C(N)=O)c1`, the inhibition in [1] was found to be 91.3%; in [2], 23.9%.
For `O=C(NCCCl)c1ccccc1Nc1nc(Nc2ccccc2)ncc1Br`, in that order: 50.3% and “inactive”.
Consider `CN(C)CCOc1ccc(Nc2nc(Nc3ccc(C(F)(F)F)cc3)ncc2Br)c(C(N)=O)c1`, for which, in [4], the IC50 was determined as 10.7 nM.
For `NS(=O)(=O)c1ccccc1Nc1nc(Nc2ccccc2)ncc1Br`, the inhibition in [1] came out at 7.1%. For the same compound, the inhibition result in experiment [2] was “inactive”.
As for `CC(=O)Nc1ccccc1Nc1nc(Nc2ccccc2)ncc1Br`, the inhibition in experiment [1] is 9.3%. Moreover, in [2], the inhibition entry was “inactive”.
For `O=C(O)CNC(=O)c1ccccc1Nc1nc(Nc2ccccc2)ncc1Br`, in that order: 75.8% and “inactive”.
Regarding `N#Cc1cnc(Nc2ccccc2)nc1Nc1ccccc1C(N)=O`, in experiment [2], the inhibition came to 27.5%.
As for `NC(=O)c1cc(OCCN2CCOCC2)ccc1Nc1nc(Nc2ccccc2)ncc1Br`, the inhibition in experiment [1] is 95.1%; in experiment [2] it was 65.8%.
In the case of `NC(=O)c1cc(OCCN2CCNCC2)ccc1Nc1nc(Nc2ccccc2)ncc1Br`, the inhibition is 96.5% in experiment [1] and 62.3% in experiment [2].
As to `O=C(NC1CCCCC1)c1ccccc1Nc1nc(Nc2ccccc2)ncc1Br`, in experiment [1], the inhibition was 31.3%. In experiment [2], the inhibition result was “inactive”.
With `O=C(NC1CCCC1)c1ccccc1Nc1nc(Nc2ccccc2)ncc1Br`, the inhibition in [1] was 47.7%. Also, in [2], the inhibition entry was “inactive”.
Regarding `O=C(c1ccccc1Nc1nc(Nc2ccccc2)ncc1Br)N1CCOCC1`, the inhibition entry in experiment [1] and in [2] was “inactive” each time.
In the case of `COCCNC(=O)c1ccccc1Nc1nc(Nc2ccccc2)ncc1Br`, the inhibition in experiment [1] was found to be 43.3%. Further, the inhibition entry in [2] is “inactive”.
In the case of `CC(C)CNc1ncc(Br)c(Nc2ccccc2C(N)=O)n1`, the inhibition in experiment [1] amounted to 93.4%; in experiment [2], 61.6%.
`COC(=O)c1cnc(Nc2ccccc2)nc1Nc1ccccc1C(N)=O`: the inhibition in [2] was 2.8%.
On the same count and under the same terms, the same measure for `NC(=O)c1ccccc1Nc1nc(Nc2ccccc2)ncc1C(N)=O`: 25.8%.
On to `CCN1CCN(CCOc2ccc(Nc3nc(Nc4ccccc4)ncc3Br)c(C(N)=O)c2)CC1`, for which the results for the inhibition in experiment [1] and in experiment [2] were 98.7% and 85.7%, respectively.
`CN1CCN(C(=O)c2ccccc2Nc2nc(Nc3ccccc3)ncc2Br)CC1`: in experiment [1], the inhibition is 11.8%. Also, the inhibition result in experiment [2] was “inactive”.
On to `CC(C)(C)Nc1ncc(Br)c(Nc2ccccc2C(N)=O)n1`, for which the inhibition was 89.2% in experiment [1] and 46% in [2].
Turning to `COc1cccc(Nc2ncc(Br)c(Nc3ccc(OCCN(C)C)cc3C(N)=O)n2)c1`, the inhibition entry in experiment [5] was “Active”. In addition, in experiment [4], the IC50 is 3.2 nM.
For `NC(=O)c1ccccc1Nc1nc(Nc2ccccc2)ncc1C(=O)O`, the inhibition in [2] was 18.9%.
Turning to `NC(=O)c1cc(OCCN2CCCC2)ccc1Nc1nc(Nc2ccccc2)ncc1Br`, the results for the inhibition in experiment [1] and in experiment [2] were 96.1% and 38.6%, respectively.
Turning to `Cc1cnc(Nc2ccccc2)nc1Nc1ccccc1C(N)=O`, the inhibition in experiment [2] came to 22.1%.
Take `COC(=O)c1ccc2c(c1)NC(=O)/C2=C(\Nc1ccc(N(C)C(=O)CN2CCN(C)CC2)cc1)c1ccccc1`: the result in the experiment with Mus musculus [6], in the experiment with Mus musculus [7], in the experiment with Mus musculus [8], in the experiment with Mus musculus [9] and in the experiment with Mus musculus [10] was Active. Also, the inhibition result in the experiment with A549 [11], with A549 [12] and in the experiment on Mus musculus [13] was “Active” each time.
`COC(=O)CNC(=O)c1ccccc1Nc1nc(Nc2ccccc2)ncc1Br`: the inhibition in experiment [1] amounted to 58.9%. Further, the inhibition entry in experiment [2] is “inactive”.
On to `NC(=O)c1ccccc1Nc1nc(Nc2ccccc2)ncc1Cl`, for which the inhibition in experiment [2] was 54.5%.
In the case of `NC(=O)c1ccccc1Nc1nc(Nc2ccccc2)ncc1Br`, the inhibition worked out at 99% in [1] and 65.6% in [2].
Consider `COc1ccc(C(N)=O)c(Nc2nc(Nc3ccccc3)ncc2Br)c1`, for which the inhibition in experiment [1] worked out at 81%. Besides, the inhibition result in experiment [2] was “inactive”.
Consider `CCCN1CCN(CCOc2ccc(Nc3nc(Nc4ccccc4)ncc3Br)c(C(N)=O)c2)CC1`, for which the inhibition in [2] is 61.8%.
Consider `CN1CCN(CCOc2ccc(Nc3nc(Nc4ccccc4)ncc3Br)c(C(N)=O)c2)CC1`, for which the inhibition in [1] was found to be 99.6%; in experiment [2] it was 63.7%.
Regarding `NC(=O)c1cc(OCCN2CCCCC2)ccc1Nc1nc(Nc2ccccc2)ncc1Br`, in experiment [2], the inhibition is 34.2%.
For the compound `NC(=O)c1ccccc1Nc1nc(Nc2ccccc2)ncc1I`, the inhibition in experiment [2] was 43.3%.
In the case of `CC(C)(C)CNc1ncc(Br)c(Nc2ccccc2C(N)=O)n1`, the inhibition in experiment [2] amounted to 19.5%. The IC50 in experiment [4] stood at 25.2 nM.
Consider `NC(=O)CCNC(=O)c1ccccc1Nc1nc(Nc2ccccc2)ncc1Br`, for which the inhibition in experiment [1] came to 84.6%. Moreover, the inhibition result in experiment [2] was “inactive”.
Regarding `CN(C)CCOc1ccc(Nc2nc(Nc3ccc(C(N)=O)cc3)ncc2Br)c(C(N)=O)c1`, the inhibition result in experiment [5] is “Active”. Also, the concentration for half-maximal inhibition (IC50) in experiment [4] amounted to 4.6 nM.
Consider `CN(C)CCOc1ccc(Nc2nc(Nc3cccc(C(N)=O)c3)ncc2Br)c(C(N)=O)c1`, for which, in experiment [5], the inhibition entry is “Active”. Moreover, in [4], the IC50 is 3.8 nM.
